The source of these data is patent publication US9340577B2, “HLA binding motifs and peptides and their uses” (priority 1992, dated 2016).

No end group written: not given here. Bounds are passed on as bounds.

Usually IC50 stands for the concentration at which inhibition is half-maximal. High values mean weaker potency, low ones greater potency.

Common to all, as to experiment: biochemical
One assay deals with DRB1*0802 (Homo sapiens, UniProt P01903+P01911, A100R/A103L/A169T/F76Y/H45Y/I96F/K41T/L162R/M171V/P40S/Q125H/Q178H/Q39Y/Q99D/R218S/R42G/S66Y/V115G/W38E). The assay is classed as binding.
For the next assay, the target named is DRB1*0405 (Homo sapiens, UniProt P01903+P01911, A100R/A169T/D86S/F76Y/I96L/K127E/L162R/M171V/N62H/P40V/Q125Y/R42H/S133A/S149N/S66Y/V115G/V209L/W38E). In kind it is binding.
Another assay deals with DRB1*0901 (Homo sapiens, UniProt P01903+P01911, A100R/A103E/D57H/D86V/F55Y/F60I/F76Y/I96F/K127E/L162R/M171V/P40D/Q125H/Q99R/R33Q/R42F/S133A/S66N/T210M/V115G/W38K/Y107V/Y59G/Y89S). The assay is classed as binding.
The next assay concerns the target DRB1*1201 (Homo sapiens, UniProt P01903+P01911, A100R/A169T/D57E/D86V/F55L/H45Y/K41T/L162R/M171V/P40S/Q125H/Q178H/Q39Y/Q99D/R42G/S66L/T262R/V114A/V67L/W38E/Y59H/Y61H/Y89S). In kind it is binding.
For the next assay, the target named is DRB1*1101 (Homo sapiens, UniProt P01903+P01911, A100R/A169T/A87E/I96F/K41T/L162R/M171V/P40S/Q125H/Q178H/Q39Y/Q99D/R42S/S66Y/T262R/V115G/W38E). The following applies: Binding affinity DRB1 *1101.
The target of the next assay is DRB4*0101 (Homo sapiens, UniProt P01903+P13762, G164S). In kind it is binding.
The target in the next assay is DR4w4 (DRB1*0401) (Homo sapiens, UniProt P01903+P01911, A100K/A169T/F76Y/I96L/K127E/L162R/M171V/N62H/P40V/Q125Y/R42H/S133A/S149N/S66Y/V115G/V209L/W38E). In kind it is binding.
In a further assay the target is DR7 (DRB1*0701) (Homo sapiens, UniProt P01903+P01911, A100R/A102G/A103Q/D57E/D86V/E43K/F76Y/K127E/L162R/M171V/P40G/Q125H/Q99D/R33Q/R42Y/R54Q/S133A/S66F/T210M/V115G/Y107V/Y59L/Y89S). In kind it is binding.
The target of another assay is DRB1*1302 (Homo sapiens, UniProt P01903+P01911, A100E/A169T/K41T/L162R/M171V/P40S/Q125H/Q178H/Q39Y/Q99D/R42S/S66N/T262R/V115G/W38E/Y61H). In kind it is binding.
The target in another assay is DRB1*1501 (Homo sapiens, UniProt P01903+P01911). In kind it is binding.
In a further assay the target is DRB5*0101 (Homo sapiens, UniProt P01903+Q30154). The following applies: Binding affinity DRB5 *0101.
For the next assay, the target named is DR1 (DRB1*0101) (Homo sapiens, UniProt P01903+P01911, A100R/D57E/F55L/F60I/F76Y/I96L/L162R/M171V/P40L/Q125E/R42F/V115G/Y59C). In kind it is binding.
In a further assay the target is DRB1*0301 (Homo sapiens, UniProt P01903+P01911, A100K/A102G/A103R/A169T/F55Y/I96L/K41T/L162R/M171V/P40S/Q125H/Q178H/Q39Y/R42S/S66N/T106N/T262R/W38E/Y61H). The assay is classed as binding.
Chain of DRB1*0301 (P01903 26-254 limits assumed, other chains not shown): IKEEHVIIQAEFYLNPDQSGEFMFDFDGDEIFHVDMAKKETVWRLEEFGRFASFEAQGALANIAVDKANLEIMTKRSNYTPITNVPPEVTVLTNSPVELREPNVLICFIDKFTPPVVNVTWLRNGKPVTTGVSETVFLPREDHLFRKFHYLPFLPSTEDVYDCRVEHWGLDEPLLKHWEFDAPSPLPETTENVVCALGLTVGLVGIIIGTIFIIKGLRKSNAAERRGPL

Chain of DRB1*1101 (P01903 26-254 limits assumed, other chains not shown): as above
Chain of DRB1*1302 (P01903 26-254 limits assumed, other chains not shown): as above

With DPRWPYLHSRLVVFH [Peptide 89.0113], the IC50 on DRB1*0802 was determined as 19800 nM; on DRB1*0405 it was 6100 nM; against DRB1*0901 it was 5400 nM; at DRB1*1201 it was 5930 nM; at DRB1*1101, 5140 nM; at DRB4*0101 it was 98 nM. The IC50 was determined as 138 nM against DR4w4 (DRB1*0401), 90 nM at DR7 (DRB1*0701) and 13 nM at DRB1*1302.

As to TPEWIQRQTVLQHSF [Peptide 89.0010], the IC50 against DRB1*0802 is 2000 nM; against DRB1*0405, 17 nM; at DRB1*1501 it was over 20000 nM; at DRB1*0901, 2870 nM; against DRB1*1201 it was over 20000 nM; at DRB1*1101, 738 nM. In addition, the IC50 at DRB4*0101 amounted to 33 nM; on DR4w4 (DRB1*0401), 80 nM; on DRB5*0101 it was 4120 nM; against DR7 (DRB1*0701), 321 nM; against DRB1*1302, 2100 nM.

Regarding TTIYNNEEWTLRDTC [Peptide 90.0232], the IC50 is over 20000 nM on DRB1*0802; over 20000 nM on DRB1*0405; 10200 nM against DRB1*1501; over 20000 nM on DRB1*0901; over 20000 nM against DRB1*1201; 3430 nM on DRB1*1101. For the same molecule, the IC50 on DRB4*0101 was over 20000 nM; against DR4w4 (DRB1*0401) it was over 20000 nM; at DRB5*0101, over 20000 nM; on DR1 (DRB1*0101) it was 10600 nM; against DR7 (DRB1*0701), over 20000 nM; against DRB1*1302, 1010 nM.

As for `CC(C)C[C@H](NC(=O)[C@H](CCC(=O)O)NC(=O)[C@H](CCCCN)NC(=O)[C@H](C)N)C(=O)N[C@@H](CCCCN)C(=O)N[C@@H](Cc1ccccc1)C(=O)N[C@H](C(=O)N[C@H](C(=O)N[C@@H](CC(C)C)C(=O)N[C@H](C(=O)N[C@@H](Cc1ccccc1)C(=O)N[C@@H](CCCNC(=N)N)C(=O)N[C@@H](Cc1c[nH]cn1)C(=O)NCC(=O)N[C@@H](CC(=O)O)C(=O)O)C(C)C)[C@@H](C)O)C(C)C` [Peptide 68.0025], on DRB1*0301, the IC50 was over 20000 nM.

As to LVEVTLGEVPAAESPD [Peptide F160.17], the IC50 is 4020 nM against DRB1*0301 and 976 nM at DR4w4 (DRB1*0401).

For DLRVVQQLLMGALTV [Peptide 85.0092], the results for the IC50 on DRB1*1501, against DRB1*0301 and on DRB1*1101 were 57 nM, over 20000 nM and 754 nM, respectively.

On to TPEWIERQTVLQHSF [Peptide 89.0048], for which the IC50 is 6060 nM against DRB1*1501; 34 nM against DRB1*0301; over 20000 nM on DRB1*0901; 19 nM against DRB4*0101; 451 nM on DR4w4 (DRB1*0401); over 20000 nM at DRB5*0101. The IC50 was 643 nM against DR1 (DRB1*0101), over 20000 nM against DR7 (DRB1*0701) and 5480 nM on DRB1*1302.

Consider KWGVLILALLRYKCG [Peptide 89.0027], for which the IC50 against DRB1*1501 is 3740 nM; on DRB1*0301, over 20000 nM; at DRB1*0901, 810 nM; on DRB1*1101, 490 nM; at DR4w4 (DRB1*0401), 584 nM; at DR7 (DRB1*0701) it was over 20000 nM. Moreover, the IC50 against DRB1*1302 is 571 nM.

For the molecule FIHFLQGAIISFVNS [Peptide 89.0088], the IC50 was over 20000 nM at DRB1*0802; 4390 nM against DRB1*0301; 867 nM at DRB1*0901; 5600 nM at DRB1*1101; 1680 nM at DRB4*0101; 2910 nM against DR4w4 (DRB1*0401). The IC50 was over 20000 nM at DRB5*0101, 51 nM on DR1 (DRB1*0101) and 1590 nM against DRB1*1302.

For the molecule TVEVQFDGDICNTMH [Peptide 90.0167], the IC50 is over 20000 nM on DRB1*0802; over 20000 nM on DRB1*0405; 5080 nM on DRB1*1501; 583 nM against DRB1*0901; over 20000 nM on DRB1*1201; over 20000 nM on DRB1*1101. In addition, the IC50 at DRB4*0101 is 235 nM; against DR4w4 (DRB1*0401) it was 818 nM; at DRB5*0101, over 20000 nM; against DR1 (DRB1*0101), 2300 nM; at DR7 (DRB1*0701) it was 250 nM; against DRB1*1302, 39 nM.

Regarding LIRMECAIMYTARQM [Peptide 90.0022], the IC50 stood at 3060 nM at DRB1*0802; 815 nM on DRB1*0405; 1480 nM on DRB1*1501; 4120 nM on DRB1*0901; 201 nM against DRB1*1201; 738 nM at DRB1*1101. Also, the IC50 against DRB4*0101 amounted to 158 nM; against DR4w4 (DRB1*0401) it was 433 nM; on DRB5*0101, 6470 nM; against DR7 (DRB1*0701) it was 473 nM; at DRB1*1302, 241 nM.

Take RLNLDNDEDKENNGD [Peptide 90.0144]: the IC50 amounted to 4010 nM against DRB1*0802; 1680 nM on DRB1*0405; 581 nM at DRB1*1501; 19700 nM against DRB1*0901; 4410 nM against DRB1*1201; 1600 nM at DRB1*1101. The IC50 against DRB4*0101 amounted to 25 nM; on DR4w4 (DRB1*0401), 1780 nM; against DR1 (DRB1*0101), 31 nM; against DR7 (DRB1*0701) it was 865 nM; against DRB1*1302, 1390 nM.

Turning to `CC[C@H](C)[C@H](NC(=O)[C@@H](NC(=O)[C@@H]1CCCN1C(=O)[C@H](Cc1ccccc1)NC(=O)[C@H](Cc1ccccc1)NC(=O)[C@H](Cc1ccc(O)cc1)NC(=O)[C@H](CCC(N)=O)NC(=O)[C@H](Cc1c[nH]c2ccccc12)NC(=O)[C@H](CC(N)=O)NC(=O)CNC(=O)[C@@H](N)C(C)C)C(C)C)C(=O)N[C@@H](Cc1ccccc1)C(=O)N[C@@H](CO)C(=O)N[C@@H](CCCCN)C(=O)N[C@@H](C)C(=O)O` [Peptide 58.0114], the IC50 against DRB1*0301 came to 4.1 nM.

Take HIEFTPTRTDTYACRV [Peptide 530.12]: the results for the IC50 on DRB1*0301 and on DR7 (DRB1*0701) were 30000 nM and over 12500 nM, respectively.

As for GGDWKQIVMFLRYQG [Peptide 89.0013], the IC50 against DRB1*0301 is 6320 nM; at DRB1*1101, 198 nM; on DRB4*0101, 7.9 nM; against DR4w4 (DRB1*0401) it was 793 nM; at DRB5*0101, 14 nM; at DR1 (DRB1*0101), 2040 nM. The IC50 came out at 2460 nM against DR7 (DRB1*0701) and 899 nM against DRB1*1302.

On to CTLVAGEVDYVGLYY [Peptide 90.0252], for which the IC50 against DRB1*0802 was over 20000 nM; at DRB1*0405 it was 9020 nM; against DRB1*1501, over 20000 nM; at DRB1*0901, 981 nM; at DRB1*1201, 3630 nM; at DRB1*1101, 6720 nM. Further, the IC50 was 20 nM against DRB4*0101; 776 nM against DR4w4 (DRB1*0401); over 20000 nM at DRB5*0101; over 20000 nM against DR1 (DRB1*0101); over 20000 nM against DR7 (DRB1*0701); 714 nM at DRB1*1302.

With GQVIVCPASVSSNEV [Peptide 90.0016], the IC50 at DRB1*1501 worked out at 461 nM; against DRB1*0301, 7740 nM; at DRB1*0901, 197 nM; on DRB1*1101 it was 4820 nM; against DRB4*0101 it was 197 nM; against DR4w4 (DRB1*0401), 64 nM. Also, the IC50 on DRB5*0101 is 8640 nM; against DR1 (DRB1*0101), 24 nM; at DR7 (DRB1*0701) it was 56 nM; against DRB1*1302 it was 94 nM.

NGVLQGITSWGSEPC [Peptide 68.0081] yielded an IC50 against DRB1*0301 of over 20000 nM.

As to GLYYWCDGEKIYFVK [Peptide 90.0226], the IC50 at DRB1*0802 is over 20000 nM; against DRB1*1501, 1300 nM; on DRB1*0301, 432 nM; against DRB1*0901, over 20000 nM; on DRB1*1101, 9140 nM; against DRB4*0101, over 20000 nM. Also, the figures for the IC50 at DRB5*0101, on DR1 (DRB1*0101) and against DR7 (DRB1*0701) were over 20000 nM, 698 nM and 4930 nM, respectively.
